# According to patent publication US11613558B2, “Peptides and pharmaceutical compositions for treating eye diseases” (Yuyu Pharma, Inc., priority 2018, dated 2023):
# Square brackets hold non-standard residues; d marks the D form. Ends that are not written are not given here. Peptide text beside a SMILES is read from it. ξ: configuration not given here. Pro(trans-4-F) = O=C(O)[C@@H]1C[C@@H](F)CN1; Pro(4,4-Me2) = CC1(C)CN[C@H](C(=O)O)C1; Hyp = O=C(O)[C@@H]1C[C@@H](O)CN1; Ile(3ξ) = CCC(C)[C@H](N)C(=O)O; Thr(3ξ) = CC(O)[C@H](N)C(=O)O
# How the values were obtained:
# [1] = test system: cornea of rats with dry eye syndrome (ELGE); test: Corneal permeability of fluorescent dye (corneal damage) in ELGE rats with dry eye syndrome; type: in vivo, rat; conditions: 5 μl/eye twice daily, day 14
# From the text: (§1) In order to evaluate the eye protection effect on dry eye syndrome by YDE-001 to YDE-028 prepared in Example 1, a total of 320 Sprague-Dawley-type male rats (OrientBio, Seungnam, Korea) were adapted for 7 days. Thereafter, dry eye syndrome was induced in 264 test rats through extraorbital lacrimal gland excision (hereinafter, ELGE). 8 test rats without the eye abnormality were subjected to a sham operation as a control group.
# (§2) The rat was systemically anesthetized by inhaling a mixed gas of 2% to 3% of isoflurane (Hana Pharm. Co., Hwasung, Korea), 70% of N2O, and 28.6% of O2 using a rodent anesthesia machine (Surgivet, Waukesha, Wis., USA) and a ventilator (Model 687, Harvard Apparatus, Cambridge, UK). Thereafter, the extraorbital lacrimal gland located in the subdermal area above the masseter muscle and […] was excised through a transverse incision in a size of 10 mm on the anterior part of the left ear tragus. The skin was sutured by a general method. […] After 6 days from the ELGE operation, it was checked through the Schirmer test by measuring the amount of tear secretion whether dry eye syndrome had been induced. Meanwhile, each rat of the control group with the sham operation was checked for the presence and location of the extraorbital lacrimal gland through a skin incision, and the skin was then sutured without the excision thereof (FIG. 4).
# (§3) In addition, in order to evaluate the eye protection effect on dry eye syndrome by YDE-029 to YDE-043 prepared in Example 1, a total of 200 Sprague-Dawley-type male rats (OrientBio, Seungnam, Korea) were adapted for 7 days. Dry eye syndrome was induced in 165 test rats through the ELGE. 8 test rats without the eye abnormality were subjected to the sham operation as a control group. The ELGE was carried out as described above.
# (§4) For YDE-001 to YDE-028, YY-102 and the 28 YDE-series were each dissolved in physiological saline at a concentration of 3 mg/ml and administered at a dose of 5 μl/eye at 9:30 am and 3:30 pm daily for 14 days after 7 days from the ELGE operation for a total of 28 times. The DS solution was dissolved in physiological saline at a concentration of 30 mg/ml and administered at a dose of […] twice a day for 14 days after 7 days from the ELGE operation for a total of 28 times. For the sham control and the ELGE control groups, the same stimulation as the administration was applied. In order to prevent excessive eye dryness, the same volume of physiological saline was applied in the same manner in place of the test substances.
# as §4, with “Further, for YDE-029 to YDE-043,” for “For YDE-001 to YDE-028,”, “YDE-029 to YDE-043, YY-102 and” for “YDE-001 to YDE-028, YY-102 and”, “and the 15 YDE-series were” for “and the 28 YDE-series were”, “the test substances (FIG. 7).” for “the test substances.”
# After YDE-001 to YDE-028 were each administered to the eyes […], the changes in the corneal permeability were checked.
# In order to measure the corneal permeability, Zolethyl 50™ (Virbac Lab., Carros, France), an animal anesthetic, was intraperitoneally injected at a dose of 25 mg/kg. Thereafter, saline containing a 1% (v/v) fluorescent solution (fluorescein sodium salt, Tokyo Kasei Kogyo Co., Tokyo, Japan) was applied to the eyes at a dose of 5 μl/eye. The eyes thus treated were closed and fixed with a tape. After 1 hour, the remaining fluorescent solution was removed using a cotton swab (FIG. 12). […]
# [2] = Stability in aqueous solution under long-term storage conditions (related substances); type: physicochemical; conditions: 25° C., 75% RH
# Method: In order to confirm the stability of each test substance in an aqueous solution, […] of each sample was dissolved in 1 ml of water to a concentration of 1 mg/ml, which was then charged to a glass vial, plugged with a rubber cap, sealed with an aluminum cap, and stored under long-term storage conditions (25° C., 75% RH). The stability of the test substance was evaluated by measuring the amount of related substances at the time of one week, two weeks, four weeks, eight weeks, and twelve weeks under the long-term storage conditions.
# [3] = test system: rats with dry eye syndrome (extraorbital lacrimal gland excision, ELGE); test: Amount of tear secretion (Schirmer test, cobalt chloride paper) in ELGE rats with dry eye syndrome; type: in vivo, rat; conditions: for Tear Volumes, Day 7 / Tear Volumes, Day 14: ELGE rats, 3 mg/ml, 5 μl/eye twice daily; for Tear Volumes, Day 7: day 7 of administration; for Tear Volumes, Day 14: day 14 of administration; for Change in amount of tear secretion as compared with the ELGE control group: 3% solution as printed, after administration for 14 days
# From the text: as §1, §2, §3, §4
# as §4, with “Further, for YDE-029 to YDE-043,” for “For YDE-001 to YDE-028,”, “YDE-029 to YDE-043, YY-102 and” for “YDE-001 to YDE-028, YY-102 and”, “and the 15 YDE-series were” for “and the 28 YDE-series were”, “the test substances (FIG. 7).” for “the test substances.”
# After 6 days from the ELGE surgery, the changes in the amount of tear secretion were measured at day 7 and day 14 after the administration of YDE-001 to YDE-043. The amount of tear secretion was measured by the […] travel distance of tears absorbed by cobalt chloride paper in a size of 1×15 mm (Toyo Roshi Kaisha, Japan).
# The cobalt chloride paper was placed in the lateral canthus of a rat for 60 seconds to absorb tears (FIG. 9). The length of the area absorbed from the corner of the cobalt chloride paper was measured with an electronic digital caliper (Mytutoyo, Tokyo, Japan) (FIG. 8).
# [4] = Table 6, study of YDE-001 to YDE-028, 3 mg/ml
# [5] = Table 4, study of YDE-001 to YDE-028
# [6] = Table 7, study of YDE-029 to YDE-043, 3 mg/ml
# [7] = Table 5, study of YDE-029 to YDE-043
Amount of related substances (after 12 weeks) [2],Molecule,"Permeability of fluorescent dye [1, 4]","Tear Volumes, Day 7 [3, 5]","Tear Volumes, Day 14 [3, 5]",Change in amount of tear secretion as compared with the ELGE control group ([3]; study of YDE-001 to YDE-028),"Permeability of fluorescent dye [1, 6]","Tear Volumes, Day 7 [3, 7]","Tear Volumes, Day 14 [3, 7]",Change in amount of tear secretion as compared with the ELGE control group ([3]; study of YDE-029 to YDE-043)
4.71%,CC(C)C[C@H](NC(=O)CNC(=O)[C@@H](NC(=O)[C@H](CCC(N)=O)NC(=O)CNC(=O)[C@@H]1C[C@@H](O)CN1)C(C)C)C(=O)N[C@@H](C)C(=O)NCC(=O)N1CCC[C@H]1C(=O)N[C@@H](CCCCN)C(=O)O [YDE-009] (H-[Hyp]GQVGLAGPK-OH),41.50 ± 7.86%,3.76 ± 1.21 mm^3,4.54 ± 1.11 mm^3,did not show any significant changes,–,–,–,–
2.88%,PGQLGLAGPK [YDE-037],–,–,–,–,36.30 ± 9.75%,4.98 ± 0.66 mm^3,5.80 ± 0.90 mm^3,–
11.33%,CCC(C)[C@H](NC(=O)[C@H](CC(=O)O)NC(=O)[C@H](CCC(N)=O)NC(=O)CNC(=O)[C@@H]1C[C@@H](O)CN1)C(=O)N[C@@H](CC(C)C)C(=O)N[C@@H](C)C(=O)NCC(=O)N1CCC[C@H]1C(=O)N[C@@H](CCCCN)C(=O)O (stereo partly drawn) [YDE-016] (H-[Hyp]GQD[Ile(3ξ)]LAGPK-OH),24.57 ± 10.34%,4.59 ± 1.13 mm^3,5.98 ± 2.27 mm^3,–,–,–,–,–

# Continued, molecule first:
Molecule,Amount of related substances (after 12 weeks) [2],"Permeability of fluorescent dye [1, 4]","Tear Volumes, Day 7 [3, 5]","Tear Volumes, Day 14 [3, 5]",Change in amount of tear secretion as compared with the ELGE control group ([3]; study of YDE-001 to YDE-028),"Permeability of fluorescent dye [1, 6]","Tear Volumes, Day 7 [3, 7]","Tear Volumes, Day 14 [3, 7]",Change in amount of tear secretion as compared with the ELGE control group ([3]; study of YDE-029 to YDE-043)
CC(C)C[C@H](NC(=O)[C@H](CCC(N)=O)NC(=O)CNC(=O)[C@@H]1C[C@@H](O)CN1)C(=O)NCC(=O)O [YDE-043] (H-[Hyp]GQLG-OH),3.43%,–,–,–,–,19.04 ± 7.36%,5.90 ± 1.06 mm^3,8.16 ± 1.42 mm^3,–
"CC(C)C[C@H](NC(=O)CNC(=O)[C@H](CC(C)C)NC(=O)[C@H](CCC(N)=O)NC(=O)CNC(=O)[C@@H]1CC(C)(C)CN1)C(=O)N[C@@H](C)C(=O)NCC(=O)N1CCC[C@H]1C(=O)N[C@@H](CCCCN)C(=O)O [YDE-040] (H-[Pro(4,4-Me2)]GQLGLAGPK-OH)",3.58%,–,–,–,–,18.33 ± 9.41%,5.77 ± 1.05 mm^3,8.63 ± 1.53 mm^3,–
CC(C)C[C@H](NC(=O)CNC(=O)[C@@H](NC(=O)[C@H](CCC(N)=O)NC(=O)CNC(=O)[C@@H]1C[C@@H](O)CN1)C(C)O)C(=O)N[C@@H](C)C(=O)NCC(=O)N1CCC[C@H]1C(=O)N[C@@H](CCCCN)C(=O)O (stereo partly drawn) [YDE-007] (H-[Hyp]GQ[Thr(3ξ)]GLAGPK-OH),3.76%,32.79 ± 10.77%,3.91 ± 1.28 mm^3,5.45 ± 1.26 mm^3,–,–,–,–,–
CC(C)C[C@H](NC(=O)CNC(=O)[C@H](CC(C)C)NC(=O)[C@H](CCC(N)=O)NC(=O)CNC(=O)[C@@H]1C[C@@H](O)CN1)C(=O)N[C@@H](C)C(=O)NCC(=O)N1CCC[C@H]1C(=O)N[C@@H](Cc1ccc(O)cc1)C(=O)O [YDE-029] (H-[Hyp]GQLGLAGPY-OH),2.77%,–,–,–,–,63.45 ± 11.57%,5.33 ± 1.43 mm^3,6.03 ± 1.71 mm^3,did not show any significant changes
CC(C)C[C@H](NC(=O)CNC(=O)[C@H](CC(C)C)NC(=O)[C@H](CCC(N)=O)NC(=O)CNC(=O)[C@@H]1C[C@@H](F)CN1)C(=O)N[C@@H](C)C(=O)NCC(=O)N1CCC[C@H]1C(=O)N[C@@H](CCCCN)C(=O)O [YDE-039] (H-[Pro(trans-4-F)]GQLGLAGPK-OH),2.19%,–,–,–,–,29.94 ± 11.40%,6.04 ± 1.01 mm^3,6.44 ± 1.96 mm^3,–
"O=c1ccn([C@@H]2O[C@H](COP(=O)(O)OP(=O)(O)OP(=O)(O)OP(=O)(O)OC[C@H]3O[C@@H](n4ccc(=O)[nH]c4=O)[C@H](O)[C@@H]3O)[C@@H](O)[C@H]2O)c(=O)[nH]1 [DS, diquafosol sodium, reference compound]",–,–,–,–,increased,–,–,–,increased
